Measurements taken from ChEMBL document CHEMBL4196088, “Induction of cell killing and autophagy by amphiphilic pyrrolidine derivatives on human pancreatic cancer cells” (Eur J Med Chem, 2018).
Activity calls are given as the source filed them. The calls are words filed in the database; no cut-off is given here.

Key:
[1] = test system: SK-BR-3; assay: Growth inhibition of human SKBR3 cells after 72 hrs; assay type: functional, cell-based; details: SK-BR-3, 72 h
[2] = test system: NCI-H460; assay: Growth inhibition of human NCI-H460 cells after 72 hrs; assay type: functional, cell-based; details: NCI-H460, 72 h
[3] = test system: ACHN; assay: Growth inhibition of human ACHN cells after 72 hrs; assay type: functional, cell-based
[4] = test system: HeLa; assay: Growth inhibition of human HeLa cells after 72 hrs; assay type: functional, cell-based
[5] = test system: Jurkat; assay: Growth inhibition of human Jurkat cells after 72 hrs; assay type: functional, cell-based
[6] = test system: BXPC-3; assay: Induction of apoptosis in human BxPC3 cells assessed as accumulation at sub-G0/G1 phase at 20 uM after 72 hrs by propidium iodide staining based flow cytometry (reference value: 3.4%); assay type: functional
[7] = test system: PK9; assay: Induction of apoptosis in human PK9 cells assessed as accumulation at sub-G0/G1 phase at 20 uM after 24 hrs by propidium iodide staining based flow cytometry (reference value: 2.2%); assay type: functional
[8] = Induction of apoptosis in HPNE cells assessed as accumulation at sub-G0/G1 phase at 20 uM after 72 hrs by propidium iodide staining based flow cytometry (reference value: 6.6%); assay type: cell-based; details: human
[9] = test system: BXPC-3; assay: Induction of apoptosis in human BxPC3 cells assessed as accumulation at sub-G0/G1 phase at 20 uM by propidium iodide staining based flow cytometry; assay type: functional, cell-based; details: TDE = time-dependent effect
[10] = test system: PANC-1; assay: Induction of apoptosis in human PANC1 cells assessed as accumulation at sub-G0/G1 phase at 10 uM after 72 hrs by propidium iodide staining based flow cytometry (reference value: 1.6 to 3.2%); assay type: functional
[11] = test system: BXPC-3; assay: Induction of apoptosis in human BxPC3 cells harboring pSFFV-Bcl-XL assessed as accumulation at sub-G0/G1 phase at 20 uM by propidium iodide staining based flow cytometry; assay type: functional, cell-based; details: TDE = time-dependent effect
[12] = test system: PANC-1; assay: Induction of apoptosis in human PANC1 cells assessed as accumulation at sub-G0/G1 phase at 20 uM by propidium iodide staining based flow cytometry; assay type: functional, cell-based; details: TDE = time-dependent effect
[13] = test system: BXPC-3; assay: Induction of apoptosis in human BxPC3 cells assessed as accumulation at sub-G0/G1 phase at 10 uM after 24 hrs by propidium iodide staining based flow cytometry (reference value: 1.8%); assay type: functional
[14] = test system: BXPC-3; assay: Induction of apoptosis in human BxPC3 cells assessed as accumulation at sub-G0/G1 phase at 10 uM after 72 hrs by propidium iodide staining based flow cytometry (reference value: 3.4%); assay type: functional
[15] = test system: BXPC-3; assay: Induction of apoptosis in human BxPC3 cells harboring pSFFV-Bcl-XL assessed as accumulation at sub-G0/G1 phase at 10 uM after 24 hrs by propidium iodide staining based flow cytometry (reference value: 1.5%); assay type: functional
[16] = test system: PK9; assay: Induction of apoptosis in human PK9 cells assessed as accumulation at sub-G0/G1 phase at 10 uM after 48 hrs by propidium iodide staining based flow cytometry (reference value: 3.8%); assay type: functional
[17] = test system: PK9; assay: Induction of apoptosis in human PK9 cells assessed as accumulation at sub-G0/G1 phase at 10 uM after 72 hrs by propidium iodide staining based flow cytometry (reference value: 4%); assay type: functional
[18] = test system: Fibroblast; assay: Induction of apoptosis in human primary fibroblasts assessed as accumulation at sub-G0/G1 phase at 10 uM after 24 hrs by propidium iodide staining based flow cytometry (reference value: 4.8%); assay type: cell-based
[19] = test system: Fibroblast; assay: Induction of apoptosis in human primary fibroblasts assessed as accumulation at sub-G0/G1 phase at 10 uM after 72 hrs by propidium iodide staining based flow cytometry (reference value: 6.7%); assay type: cell-based
[20] = Induction of apoptosis in HPNE cells assessed as accumulation at sub-G0/G1 phase at 10 uM after 24 hrs by propidium iodide staining based flow cytometry (reference value: 0.6%); assay type: cell-based; details: human
[21] = Induction of apoptosis in HPNE cells assessed as accumulation at sub-G0/G1 phase at 10 uM after 48 hrs by propidium iodide staining based flow cytometry (reference value: 0.7%); assay type: cell-based; details: human
[22] = Induction of apoptosis in HPNE cells assessed as accumulation at sub-G0/G1 phase at 10 uM after 72 hrs by propidium iodide staining based flow cytometry (reference value: 6.6%); assay type: cell-based; details: human
[23] = test system: MIA PaCa-2; assay: Induction of apoptosis in human MIAPaCa2 cells assessed as live cells at 20 uM after 24 hrs by Annexin V-FITC/propidium iodide staining based flow cytometry (reference value: 86.79%); assay type: functional
[24] = test system: MIA PaCa-2; assay: Induction of apoptosis in human MIAPaCa2 cells assessed as early apoptotic cells at 20 uM after 24 hrs by Annexin V-FITC/propidium iodide staining based flow cytometry (reference value: 5.16%); assay type: functional
[25] = test system: MIA PaCa-2; assay: Induction of apoptosis in human MIAPaCa2 cells assessed as late apoptotic cells at 20 uM after 24 hrs by Annexin V-FITC/propidium iodide staining based flow cytometry (reference value: 7.4%); assay type: functional
[26] = test system: MIA PaCa-2; assay: Induction of apoptosis in human MIAPaCa2 cells assessed as necrotic cells at 20 uM after 24 hrs by Annexin V-FITC/propidium iodide staining based flow cytometry (reference value: 0.63%); assay type: functional
[27] = test system: BXPC-3; assay: Induction of autophagy in human BxPC3 cells assessed as increase in LC3-2 protein expression at 20 uM after 48 hrs in presence of autophagy inhibitor bafilomycin A1 by Western blot analysis; assay type: functional, cell-based
[28] = test system: BXPC-3; assay: Induction of apoptosis in human BxPC3 cells assessed as accumulation at sub-G0/G1 phase at 20 uM after 48 hrs in presence of autophagy inhibitor bafilomycin A1 by propidium iodide staining based flow cytometry; assay type: functional, cell-based
[29] = test system: BXPC-3; assay: Induction of autophagy in human BxPC3 cells assessed as increase in LC3-2 protein expression at 20 uM after 48 hrs in presence of autophagy inhibitor 3-MA by Western blot analysis; assay type: functional, cell-based
[30] = test system: PK9; assay: Induction of apoptosis in human PK9 cells harboring BECN1 shRNA at 20 uM after 24 hrs by Annexin V/7-AAD staining based flow cytometry; assay type: functional, cell-based
[31] = test system: PK9; assay: Induction of apoptosis in human PK9 cells harboring ATG7 shRNA at 20 uM after 24 hrs by Annexin V/7-AAD staining based flow cytometry; assay type: functional, cell-based
[32] = test system: BXPC-3; assay: Growth inhibition of human BxPC3 cells after 72 hrs by XTT assay; assay type: functional, cell-based; details: BXPC-3, 72 h
[33] = test system: PANC-1; assay: Growth inhibition of human PANC1 cells after 72 hrs by XTT assay; assay type: functional, cell-based; details: PANC-1, 72 h

SMILES	Activity [6] [%]	Activity [7] [%]	Activity [8] [%]	Activity [10] [%]	Activity [13] [%]	Activity [14] [%]	Activity [15] [%]	Activity [16] [%]	Activity [17] [%]	Activity [18] [%]	Activity [19] [%]	Activity [20] [%]	Activity [21] [%]	Activity [22] [%]	Activity [23] [%]	Activity [24] [%]	Activity [25] [%]	Activity [26] [%]	Activity [28]	other results
CCCCCC/C=C\CCCCCCCCOC[C@H]1NC[C@H](O)[C@@H]1O	46.8	10.1	81.7	18.6	9.6	20.8	2	6.1	6.5	7.9	9.5	23.9	30.8	42.1	76.71	11.88	10.68	0.71	Active	IC50 [1]: 6 µM; IC50 [2]: 9 µM; IC50 [3]: 3 µM; IC50 [4]: 2 µM; IC50 [5]: 1 µM; Activity [9]: Tde; Activity [11]: Tde; Activity [12]: Tde; Activity [27]: Active; Activity [29]: inactive; Activity [30]: Active; Activity [31]: Active
CCCCCCCCCCCCCCCCCCOCC(COP(=O)([O-])OCC[N+](C)(C)C)OC (configuration not stated) [EDELFOSINE]	39.2	4.8	8.2	15.8	14.2	24.3	1.8	8	10.3	5.2	8.7	1.9	3.5	4.8	11.51	28.49	52.52	7.47	Active	IC50 [32]: 18.8 µM; IC50 [33]: 25.7 µM
